According to paper PMC6440935, “Characterization and phase I study of CLR457, an orally bioavailable pan-class I PI3-kinase inhibitor” (Investigational New Drugs, 2018):
Like-named read-outs stand apart in the source and are kept apart here.

Description: The primary objective was to define the maximum tolerated dose (MTD). Secondary objectives included assessments for safety, tolerability, pharmacokinetic (PK) profile, and preliminary antitumor activity.
Patients had histologically documented locally advanced or metastatic solid tumors harboring an activating PIK3CA mutation or amplification, PTEN loss of function, c-MET activation, [16, 17] […] Other key inclusion criteria included age ≥ 18 years, Eastern Cooperative Oncology Group performance status (ECOG-PS) ≤2, adequate organ function, measurable or non-measurable disease as determined by Response Evaluation Criteria in Solid Tumors (RECIST) version 1.1.
The starting dose for CLR457 was 5 mg QD, based on preclinical toxicology studies in accordance with ICH guidelines, and was administered at the same time each day ±2 h in a fasted state. Various doses were planned up to 300 mg QD until MTD determination.
Safety was evaluated by incidence, nature, severity, and relatedness of adverse events (AEs), and graded according to National Cancer Institute - Common Terminology Criteria for Adverse Events (NCI CTCAE) v4.0.3. DLTs were defined as any hematologic or non-hematologic ≥ Grade 3 AE assessed as possibly related to CLR457 that occurred within the first cycle (28 days) of treatment. In addition, uncontrolled (> 14 days) Grade 2 rash or hyperglycemia were also considered DLTs. All AEs regardless of attribution were collected until 30 days following the last administration of treatment or study discontinuation/termination.
Descriptive methods were used to tabulate toxicity and response endpoints in the clinical trial. All patients treated with CLR457 were included for safety. […] Dose escalation was guided by an adaptive Bayesian logistic regression model (BLRM) incorporating the escalation with overdose control (EWOC) principle. […] The study data (including DLTs during cycle 1 and other safety and PK data) were reviewed by the sponsor and trial investigators at each dose level. […] The Full Analysis Set (FAS) included all patients who received at least one dose of CLR457. Safety set included all patients who received at least one dose of CLR457 and had at least one valid post-baseline assessment. The Dose-determining set (DDS) included all patients from the safety set who either met the following minimum exposure criterion and had sufficient safety evaluations, or experienced a DLT during Cycle 1 (the first 28 days of dosing). The Pharmacokinetic analysis set included all patients who had at least one blood sample providing evaluable PK data.

C[C@H]1OC(=O)N(c2cc(-c3cnc(N)nc3C(F)(F)F)nc(N3CCOCC3)n2)[C@H]1CO [CLR457]
4 (13.8) n (%): Total DLTs in the first cycle (All Patients, DDS N = 29)
one: DLT maculo-papular rash (40 mg)
58.1%: AEs requiring dose interruptions or dose reductions (all patients, 18 patients)
Six: On-study deaths (all patients, 5 disease progression, 1 multi-organ failure)
27.3%: Patients with a DLT in the 100 mg cohort (100 mg, 3 of 11 patients)
5 (16.1) n (%): Treatment discontinuation, primary reason adverse event (All Patients, FAS N = 31)
3 patients: DLT maculo-papular rash (all doses)
1 (20.0) n (%): DLT maculo-papular rash in the first cycle (40 mg, DDS N = 5) | Total DLTs in the first cycle (40 mg, DDS N = 5) | Treatment discontinuation, primary reason adverse event (40 mg, FAS N = 5)
1 (50.0) n (%): Fatigue, All Grade (drug-related, 5 mg, N = 2)
3 (10.3) n (%): DLT maculo-papular rash in the first cycle (All Patients, DDS N = 29)
44.44%: Maculo-papular rash requiring dose interruption or reduction (8 patients)
51.6%: Patients with Grade 3/4 drug-related AEs (all patients N = 31)
2 (22.2) n (%): DLT maculo-papular rash in the first cycle (100 mg, DDS N = 9)
25.8%: Maculo-papular rash, grade 3/4 (all patients N = 31)
3 (33.3) n (%): Total DLTs in the first cycle (100 mg, DDS N = 9)
none: On-study deaths attributed to the study drug (all patients)
1 (3.4) n (%): DLT hyperglycemia in the first cycle (All Patients, DDS N = 29)
0 n (%): DLT hyperglycemia in the first cycle (5 mg, DDS N = 2) | DLT maculo-papular rash in the first cycle (5 mg, DDS N = 2) | Total DLTs in the first cycle (5 mg, DDS N = 2) | Treatment discontinuation, primary reason adverse event (5 mg, FAS N = 2) | DLT hyperglycemia in the first cycle (10 mg, DDS N = 3) | DLT maculo-papular rash in the first cycle (10 mg, DDS N = 3) | Total DLTs in the first cycle (10 mg, DDS N = 3) | Treatment discontinuation, primary reason adverse event (10 mg, FAS N = 3) | DLT hyperglycemia in the first cycle (20 mg, DDS N = 4) | DLT maculo-papular rash in the first cycle (20 mg, DDS N = 4) | Total DLTs in the first cycle (20 mg, DDS N = 4) | Treatment discontinuation, primary reason adverse event (20 mg, FAS N = 4) | DLT hyperglycemia in the first cycle (40 mg, DDS N = 5) | DLT hyperglycemia in the first cycle (70 mg, DDS N = 6) | DLT maculo-papular rash in the first cycle (70 mg, DDS N = 6) | Total DLTs in the first cycle (70 mg, DDS N = 6) | Treatment discontinuation, primary reason adverse event (70 mg, FAS N = 6) | Asthenia, Grade ≥ 3 (drug-related, 5 mg, N = 2) | Chills, All Grade (drug-related, 5 mg, N = 2) | Chills, Grade ≥ 3 (drug-related, 5 mg, N = 2) | Colitis, All Grade (drug-related, 5 mg, N = 2) | Colitis, Grade ≥ 3 (drug-related, 5 mg, N = 2) | Cough, All Grade (drug-related, 5 mg, N = 2) | Cough, Grade ≥ 3 (drug-related, 5 mg, N = 2) | Decreased appetite, All Grade (drug-related, 5 mg, N = 2) | Decreased appetite, Grade ≥ 3 (drug-related, 5 mg, N = 2) | Decreased neutrophil count, All Grade (drug-related, 5 mg, N = 2) | Decreased neutrophil count, Grade ≥ 3 (drug-related, 5 mg, N = 2) | Dehydration, All Grade (drug-related, 5 mg, N = 2) | Dehydration, Grade ≥ 3 (drug-related, 5 mg, N = 2) | Diarrhea, All Grade (drug-related, 5 mg, N = 2) | Diarrhea, Grade ≥ 3 (drug-related, 5 mg, N = 2) | Dry mouth, All Grade (drug-related, 5 mg, N = 2) | Dry mouth, Grade ≥ 3 (drug-related, 5 mg, N = 2) | Dry skin, All Grade (drug-related, 5 mg, N = 2) | Dry skin, Grade ≥ 3 (drug-related, 5 mg, N = 2) | Dysgeusia, All Grade (drug-related, 5 mg, N = 2) | Dysgeusia, Grade ≥ 3 (drug-related, 5 mg, N = 2) | Fatigue, Grade ≥ 3 (drug-related, 5 mg, N = 2) | Headache, All Grade (drug-related, 5 mg, N = 2) | Headache, Grade ≥ 3 (drug-related, 5 mg, N = 2) | Hyperglycemia, All Grade (drug-related, 5 mg, N = 2) | Hyperglycemia, Grade ≥ 3 (drug-related, 5 mg, N = 2) | Hypomagnesaemia, All Grade (drug-related, 5 mg, N = 2) | Hypomagnesaemia, Grade ≥ 3 (drug-related, 5 mg, N = 2) | Maculo-papular rash, All Grade (drug-related, 5 mg, N = 2) | Maculo-papular rash, Grade ≥ 3 (drug-related, 5 mg, N = 2) | Nausea, All Grade (drug-related, 5 mg, N = 2) | Nausea, Grade ≥ 3 (drug-related, 5 mg, N = 2) | Pneumonitis, All Grade (drug-related, 5 mg, N = 2) | Pneumonitis, Grade ≥ 3 (drug-related, 5 mg, N = 2) | Pruritus, All Grade (drug-related, 5 mg, N = 2) | Pruritus, Grade ≥ 3 (drug-related, 5 mg, N = 2) | Pyrexia, All Grade (drug-related, 5 mg, N = 2) | Pyrexia, Grade ≥ 3 (drug-related, 5 mg, N = 2) | Rash, All Grade (drug-related, 5 mg, N = 2) | Rash, Grade ≥ 3 (drug-related, 5 mg, N = 2) | Stomatitis, All Grade (drug-related, 5 mg, N = 2) | Stomatitis, Grade ≥ 3 (drug-related, 5 mg, N = 2) | Vomiting, All Grade (drug-related, 5 mg, N = 2) | Vomiting, Grade ≥ 3 (drug-related, 5 mg, N = 2) | Weight decreased, All Grade (drug-related, 5 mg, N = 2) | Weight decreased, Grade ≥ 3 (drug-related, 5 mg, N = 2) | Asthenia, Grade ≥ 3 (drug-related, 10 mg, N = 3) | Chills, All Grade (drug-related, 10 mg, N = 3) | Chills, Grade ≥ 3 (drug-related, 10 mg, N = 3) | Colitis, All Grade (drug-related, 10 mg, N = 3) | Colitis, Grade ≥ 3 (drug-related, 10 mg, N = 3) | Cough, All Grade (drug-related, 10 mg, N = 3)
two: DLT maculo-papular rash (100 mg)
4 (36.4) n (%): Treatment discontinuation, primary reason adverse event (100 mg, FAS N = 11)
22%: Diarrhea requiring dose interruption or reduction (4 patients)
63.6%: Patients with at least one SAE irrespective of treatment (100 mg, 7 of 11 pts)
1 patient: DLT Grade 3 hyperglycemia (100 mg)
1 (11.1) n (%): DLT hyperglycemia in the first cycle (100 mg, DDS N = 9)
100%: Patients with ≥ grade 3 toxicity (100 mg cohort (n = 11))
45.5%: Rash ≥ grade 3 (100 mg cohort (n = 11))
